Key:
MCT1 = biological target: T1, MCT1 (Homo sapiens, UniProt P53985); experiment: functional 3-BP cell viability assay (MCT1 transport inhibition); format: cell-based; conditions: MCT1-expressing A-549 cells, 50 μM 3-BP, 72 h; read-out: MCT1 transport inhibition IC50 ± SEM
T1 construct: MCT1-expressing A-549 cells[14],[15] were exposed to the MCT1 substrate 3-BP, which becomes influxed by MCT1; endogenous in cells; host or cells: A-549 lung cancer cells (from NCCS, Pune)
T1 sequence (P53985 1-500): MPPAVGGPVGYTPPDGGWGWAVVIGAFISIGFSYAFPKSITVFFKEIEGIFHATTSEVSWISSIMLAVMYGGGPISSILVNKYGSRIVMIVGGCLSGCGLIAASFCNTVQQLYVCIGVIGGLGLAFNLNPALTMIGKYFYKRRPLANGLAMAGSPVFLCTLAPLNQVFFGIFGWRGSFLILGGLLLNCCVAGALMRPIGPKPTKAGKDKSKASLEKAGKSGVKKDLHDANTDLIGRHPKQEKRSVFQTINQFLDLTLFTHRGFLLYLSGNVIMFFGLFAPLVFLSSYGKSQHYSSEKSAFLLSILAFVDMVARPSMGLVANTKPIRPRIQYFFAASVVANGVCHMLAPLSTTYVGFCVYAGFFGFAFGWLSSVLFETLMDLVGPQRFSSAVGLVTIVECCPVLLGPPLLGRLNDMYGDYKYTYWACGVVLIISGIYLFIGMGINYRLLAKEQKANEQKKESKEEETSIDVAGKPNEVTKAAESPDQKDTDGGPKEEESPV
T1 sequence (P35613 140-385 partner limits assumed): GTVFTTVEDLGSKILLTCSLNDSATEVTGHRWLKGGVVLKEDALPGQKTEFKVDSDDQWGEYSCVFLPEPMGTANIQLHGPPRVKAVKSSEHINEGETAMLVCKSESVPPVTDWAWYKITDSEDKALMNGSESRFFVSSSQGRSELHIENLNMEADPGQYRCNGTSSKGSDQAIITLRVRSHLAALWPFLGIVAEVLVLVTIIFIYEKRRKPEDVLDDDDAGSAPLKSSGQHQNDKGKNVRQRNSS
Protocol: The inhibitory activity of indole derivatives against MCT1 was determined by applying a functional 3-bromopyruvate (3-BP) cell viability assay, as described in the literature[20],[39] with minor modifications. In short, MCT1-expressing A-549 cells[14],[15] were exposed to the MCT1 substrate 3-BP, which becomes influxed by MCT1. 3-BP is toxic, leading to decreased cell viability. Functional inhibition of MCT1 results in reduced intracellular 3-BP levels and, thus, enhanced cell viability compared to no inhibition. […] Table 1 provides the half-maximal inhibition concentration (IC50) values of compounds 17–32.
A functional 3-BP cytotoxicity assay was conducted as described in the literature[20],[39] with minor modifications. Dilution series of compounds 17–32 between 1 nM and 1 μM were prepared in DPBS (Cell Clone, Genetix Biotech Asia, New Delhi India), and 10 μL of each concentration was pipetted into a colorless flat-bottom 96-well microplate (SPL Life Sciences, Gyeonggi-do, Republic of Korea). One hundred and eighty microliters of a cell suspension (5000 cells/well) of A-549 cells was added, and subsequently, 10 μL of 3-BP was added at a concentration of 1 mM (final concentration per well: 50 μM). The plate was kept for 72 h at 37 °C under a 5% CO2-humidified atmosphere. Cell viability was determined as described before[43] by adding 20 μL of a 5 mg/mL solution of MTT to each well and further incubation for 1 h. Eventually, the supernatant was removed and 100 μL of DMSO was added to each well. The absorbance was spectrophotometrically determined at 570 nm using a SpectraMax iD3 multi-mode microplate reader (Molecular Devices, San Jose, CA) with a background correction (690 nm). The determined absorbance values were correlated to the logarithmic concentrations of compounds 17–32, and IC50 values were calculated applying nonlinear regression using GraphPad Prism (version 8.4.0., San Diego, CA).

A-549 cancer cells = experiment: MTT-based cell viability assay, A-549; conditions: Homo sapiens, A549, 72 h, read-out: A-549 cancer cell toxicity GI50 ± SEM
From the text: MCT1-expressing cells have an extraordinary energy demand and rely on pyruvate metabolism, through either lactate conversion or pyruvate consumption. Inhibition of MCT1 blocks lactate and pyruvate influx into cancer cells, which prevents their processing in the TCA cycle. Over time, the viability of cells exposed to an MCT1 inhibitor is impaired due to pyruvate deprivation, which is compensated by upregulating glucose metabolism—leading to an overconsumption of glucose. To confirm the antiproliferative nature of the indole derivatives, we investigated the compounds toward the MCT1-expressing cell lines A-549[14],[15] and MCF-7.[16] Cancer cell viability was assessed via a 3-(4,5-dimethylthiazol-2-yl)-2,5-diphenyltetrazolium bromide (MTT) assay, as reported earlier.[43]
To determine the growth inhibitory potential of compounds 17–32, […] of each compound either at concentrations between 1 and 100 μM (A-549 or MCF-7) or at 10 and 50 μM (NIH/3T3) was pipetted into colorless flat-bottom 96-well microplates. Thereafter, 180 μL of a cell suspension (5000 cells/well) of either A-549, MCF-7, or NIH/3T3 cells was added and subsequently kept for 72 h at 37 °C under a 5% CO2-humidified atmosphere. The cell viability as well as the GI50 values were determined as described above.[43]

A-549 cells = experiment: MTT-based cell viability assay with glucose supplementation; conditions: 25 and 50% of original glucose (4.5 g/L) every 12 h over 72 h
Protocol: The glucose deprivation analyses were conducted by adding 4.5 μL of glucose (final concentrations 25% and 50% of the original 4.5 g/L) to each well at an interval of 12 h over a period of 72 h to the 180 μL cell suspension of A-549 cells in a colorless flat-bottom 96-well microplate (SPL Life Sciences, Gyeonggi-do, Republic of Korea). Cell viability was determined as described above.

| SMILES | IC50 (MCT1) | GI50 (A-549 cancer cells) | effect of glucose supplementation on cell toxicity (A-549 cells) |
| --- | --- | --- | --- |
| COC(=O)/C(C#N)=C/c1cn(CC(=O)Nc2ccc(OC)cc2)c2ccccc12 [Compound 24, Methyl-2-cyano-3-(1-(2-((4-methoxyphenyl)amino)-2-oxoethyl)-1H-indol-3-yl) Acrylate] | 0.081 ± 0.004 µM | 20 ± 0.6 µM | supplementation of glucose prevents cell toxicity |
| COC(=O)/C(C#N)=C/c1cn(CC(=O)Nc2ccc(C)cn2)c2ccccc12 [Compound 30, Methyl-2-cyano-3-(1-(2-((5-methylpyridin-2-yl)amino)-2-oxoethyl)-1H-indol-3-yl) Acrylate] | 0.0823 ± 0.0044 µM | 19.3 ± 0.3 µM | supplementation of glucose prevents cell toxicity |
